Laboratory results from article PMC12348691, “Amesilide, a New Bicyclic Polyketide from the Marine Fungus Amesia nigricolor MUT6601” (Molecules, 2025).
Values after ≈ are worked out from the molar mass of the structure shown. Where two headings read alike, the source gives them in different places.

Experiments:
Candida albicans (CA01) = assay: Antifungal assay (MIC), Candida albicans CA01; format: cell-based; details: 48 h
Protocol: (§1) Stock solutions of all compounds were prepared in DMSO. Two bacterial (E. coli UTI89 and S. aureus S25) and two yeast strains (C. krusei CK1 and C. albicans CA01) have been used for this study. […] Each culture was diluted 12 times to have a final OD value of 0.1. Then, 100 µL from the diluted (OD of 0.1) bacterial culture and 0.5 μL of each stock solution was added to the corresponding wells (in triplicate) in a 96-well plate to a final concentration of 50 μM. For the antifungal assay, the two strains C. krusei CK1 and C. albicans CA01 were spread on Petri plates with YPD (yeast-extract peptone dextrose) agar. Later, an isolated colony was collected in a tube containing 5mL of RGM (RPMI 1640® (21875, Invitrogen GIBCO®) + 34.56g/L MOPS) to have an OD of 0.05. The fungal culture and stock solutions of compounds were diluted and added to the wells as indicated for the antibacterial activity assay. To determine the potential inhibitory effect of extracts on fungal growth, absorbance at t = 0 h, t = 20 h (for antibacterial assay), and t = 48 h (for antifungal assay) were measured with the Biotek Synergy 2 Plate Reader at a wavelength of 600 nm and analyzed with the software Gen5 v3.08. Then, the differential OD was calculated (ODT48/20-ODT0) and compared to solvent control. […] Ampicillin was used as positive control (MIC of 0.5 µg/mL for all bacteria and 1.0 µg/mL for all fungi).

(CK01) = assay: Antifungal assay (MIC), Candida strain CK01; format: cell-based, Candida tropicalis; details: 48 h
[1] = tested on: Leishmania infantum (LI01); assay: Antiparasitic activity (MIC), Leishmania infantum LI01; format: cell-based
human monocytes (THP-1) = assay: Cytotoxicity assay (AlamarBlue), THP-1; format: cell-based; details: PMA-activated
Protocol: (§2) Human erythrocytes (RBC), human monocytes (THP-1), and peripheral blood mononuclear cells (PBMC) were used for this study. THP-1 cells (TIB-202) were obtained from ATCC (https://www.atcc.org (accessed on 26 January 2025)) and activated with PMA (phorbol myristate acetate) (100 ng/mL) for 48 h. Cells were grown in RPMI 1640 medium supplemented with fetal bovine serum (FBS) 10% (10270-098, GIBCO®) and penicillin/streptomycin (1%) (15140-122 GIBCO®) at 37 °C under 5% CO2 atmosphere.
(§3) For the cytotoxicity assay, THP-1 and PBMC medium cultures were added into 96-well plates with 5 × 10^3 cells per well. A two-fold dilution concentration series of each compound was added to the plates to final concentrations of 200 − 6.25 μM. AlamarBlue (DAL1025, ThermoFisher, Waltham, MA, USA), a ready-to-use resazurin-based solution, was used to measure cell viability after treatment with the extracts. A total of 10 µL was added to each well and the plate was incubated for 6–8 h at 37 °C. Fluorescence was then measured with the Biotek Synergy 2 Plate Reader using excitation at 530 nm and emission at 590 nm. The percentage of cell death was then calculated using the following formula (Equation (3)):(3) % Cellular Death = 100 × ODt − OD100/OD0 − OD100 where ODt = the fluorescence value of the test compound, OD100 = the fluorescence value for the culture medium, and OD0 = the fluorescence value for Triton 0.12%.

human erythrocytes (RBC) = assay: Hemolytic assay, human erythrocytes; format: cell-based; details: for IC50: Homo sapiens, Erythrocyte, 0.5 h; for cytotoxicity against human erythrocytes (RBC): result in words
Protocol: as §2
For the hemolytic assay, freshly obtained human erythrocytes (RBCs) from patients were washed twice with PBS (pH 7.4). This assay was performed at 10% hematocrit with two-fold serial dilutions from 200 μM of test compounds in a final volume of 100 μL, followed by incubation at 37 °C under 5% CO2 atmosphere for 30 min. Later, the plates were centrifugated at 3000g for 5 min and supernatant was transferred onto a new 96-well plate. Finally, RBC lysis was determined by the absorbance of the supernatant at 540 nm. Results were calculated with the following formula (Equation (2)):(2) % hemolysis = 100 × ODt − OD100/OD0 − OD100 where ODt = the absorbance value of test compounds; OD100 = the absorbance value of the medium; and OD0 = the absorbance value of the wells treated with 1% Triton-X.

[2] = tested on: peripheral blood mononuclear cells (PBMC); assay: Cytotoxicity assay (AlamarBlue), PBMC; format: cell-based, human; details: PBMC primary cells
Protocol: as §2, §3

Escherichia coli (UTI89) = assay: Antibacterial assay (MIC), Escherichia coli UTI89; format: cell-based; details: 20 h
Protocol: as §1

[3] = tested on: Staphylococcus aureus (S25); assay: Antibacterial assay (MIC/MBC), Staphylococcus aureus S25; format: cell-based; details: for MIC: 20 h
Protocol: as §1

[4] = tested on: all bacteria (E. coli UTI89 and S. aureus S25); assay: Antibacterial assay, positive control, all bacteria; format: cell-based; details: Escherichia coli
Protocol: as §1

[5] = tested on: all fungi (C. krusei CK1 and C. albicans CA01); assay: Antifungal assay, positive control, all fungi; format: cell-based; details: Pichia kudriavzevii
Protocol: as §1

Staphylococcus aureus = details: result in words; cited from earlier work
[6] = tested on: Niemann-Pick C1-like 1 (NPC1L1) protein; parameters: method as in PMID 30665368; details: reducing the cholesterol absorption; cited from earlier work
[7] = Homo sapiens, THP-1 cell line, read-out: IC50
[8] = RBC primary cells, hemolysis, 30 min, 10% hematocrit, read-out: IC50
[9] = Staphylococcus aureus (S25), OD 600 nm, inhibiting bacterial growth, read-out: MIC
[10] = Homo sapiens, THP-1, THP-1 cell line

Compound	IC50 (human monocytes (THP-1); [7]) [µM]	IC50 (human erythrocytes (RBC); [8]) [µM]	IC50 ([2]; Homo sapiens, read-out: IC50) [µM]	MIC [3, 9] [µM]	MIC (Escherichia coli (UTI89); Escherichia coli) [µM]	MBC ([3]; Staphylococcus aureus) [µM]	MIC ([3]; Staphylococcus aureus) [µM]	MIC (Candida albicans (CA01); Candida albicans) [µM]	MIC ((CK01); Candida tropicalis) [µM]	MIC ([1]; Leishmania infantum) [µM]	IC50 (human monocytes (THP-1); [10]) [µM]	IC50 (human monocytes (THP-1); THP-1 cell line) [µM]	IC50 (human erythrocytes (RBC)) [µM]	cytotoxicity against human erythrocytes (RBC) (human erythrocytes (RBC))	IC50 ([2]; Homo sapiens, PBMC) [µM]	IC50 [2] [µM]	also measured
C[C@@H]1[C@H](O)[C@@H](C)/C=C/C=C/C=C/C=C/C=C/C=C/C=C/[C@H](O[C@@H]2O[C@H](C)[C@@H](O)[C@H](N)[C@@H]2O)C[C@@H]2O[C@](O)(C[C@@H](O)C[C@@H](O)[C@H](O)CC[C@@H](O)C[C@@H](O)CC(=O)O[C@H]1C)C[C@H](O)[C@H]2C(=O)O [Amphotericin B, reference compound]	3.13	25	6.25	–	–	–	–	–	–	–	–	–	–	–	–	–	MIC (Candida albicans (CA01); Candida albicans (CA01), OD 600 nm, read-out: MIC): 0.2 µM; MIC ((CK01); Candida tropicalis (CK01), OD 600 nm, read-out: MIC): 0.2 µM (≈ 0.185 µg/mL); MIC ([1]; Leishmania infantum (LI01), read-out: MIC): 0.39 µM (≈ 0.36 µg/mL)
CC1(C)S[C@@H]2[C@H](NC(=O)[C@H](N)c3ccccc3)C(=O)N2[C@H]1C(=O)O [Ampicillin, reference compound]	> 200	> 200	> 200	1.56	–	–	–	–	–	–	–	–	–	–	–	–	MIC (Escherichia coli (UTI89); Escherichia coli (UTI89), OD 600 nm, read-out: MIC): > 100 µM; MIC [4]: 0.5 µg/mL; MIC [5]: 1 µg/mL
CC1=CC2(O)C(C3(C)CC(C)CC(C)C(=O)O3)CC(=O)C23C(=O)N(C)C(=O)C(c2ccccc2)C3C1C (stereo not drawn) [compound 2, chamiside A]	–	–	–	–	–	–	–	–	–	–	–	–	–	–	–	–	antibacterial activity against Staphylococcus aureus (Staphylococcus aureus): moderate antibacterial activity
C[C@H]1Oc2cc3c(-c4c(O)cc(O)c5c(O)c6c(cc45)O[C@H](C)[C@@H](C)C6=O)c(O)cc(O)c3c(O)c2C(=O)[C@@H]1C [compound 7, chaetochromin A]	–	–	–	6.25	> 100	12.5	6.25	> 100	> 100	> 100	33.6	33.6 to 40	> 200	no cytotoxicity	35.4	33.6 to 40	antibacterial activity against S. aureus (Staphylococcus aureus): strong antibacterial activity
C[C@@H]1Oc2cc3c(-c4c(O)cc(O)c5c(O)c6c(cc45)O[C@H](C)[C@@H](C)C6=O)c(O)cc(O)c3c(O)c2C(=O)[C@@H]1C [compound 8, chaetochromin B]	–	–	–	6.25	> 100	12.5	6.25	100	> 100	> 100	37.3	33.6 to 40	> 200	no cytotoxicity	40	33.6 to 40	–
Chamiside F	–	–	–	–	–	–	–	–	–	–	–	–	–	–	–	–	inhibitory activity against NPC1L1 [6]: inhibitory activity
